In patent US10934276B2, “Positive allosteric modulators of the muscarinic acetylcholine receptor M4” (Vanderbilt University, priority 2016, dated 2021):
pEC50: −log10 of the molar value.

Molecular target: T1, Human M4 (Homo sapiens, UniProt P08173)
T1 construct: expressed in transfected cells; host or cells: CHO-K1 (ATCC), stably expressing hM4 and Gqi5
T1 sequence (P08173 1-479): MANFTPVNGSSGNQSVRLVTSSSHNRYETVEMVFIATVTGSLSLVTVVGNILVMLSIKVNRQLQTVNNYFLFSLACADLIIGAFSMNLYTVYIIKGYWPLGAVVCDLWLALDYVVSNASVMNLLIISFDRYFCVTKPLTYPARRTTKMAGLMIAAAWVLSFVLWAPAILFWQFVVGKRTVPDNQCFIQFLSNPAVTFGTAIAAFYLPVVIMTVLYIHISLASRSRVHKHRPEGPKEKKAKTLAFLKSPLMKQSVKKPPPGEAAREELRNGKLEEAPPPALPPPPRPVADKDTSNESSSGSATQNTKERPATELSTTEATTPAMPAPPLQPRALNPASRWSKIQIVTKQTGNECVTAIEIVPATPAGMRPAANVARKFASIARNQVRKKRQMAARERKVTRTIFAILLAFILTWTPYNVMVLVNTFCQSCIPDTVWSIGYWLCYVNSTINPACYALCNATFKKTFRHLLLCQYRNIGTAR
Assay: mAChR M4 cell-based functional assay (calcium flux, potentiation of EC20 acetylcholine response in CHO-K1 hM4-Gqi5 cells)
Settings: for Emax at 30 µM: CHO-K1, % ACh maximum at 30 μM, human M4; for pEC50: positive allosteric modulator mode, EC20 acetylcholine, CHO-K1 cells with human M4 and Gqi5
Procedure: Human M4 cDNA, along with the chimeric G protein Gqi5, were transfected into Chinese hamster ovary (CHO—K1) cells purchased from the American Type Culture Collection using Lipofectamine2000. hM4-Gqi5 cells were grown in Ham's F-12 medium containing 10% heat-inactivated fetal bovine serum (FBS), 20 mM HEPES, 50 μg/mL G418 sulfate, and 500 μg/mL Hygromycin B. rM4-Gqi5 cells were grown in DMEM containing 10% heat-inactivated FBS, 20 mM HEPES, 400 μg/mL G418 sulfate, and 500 μg/mL Hygromycin B.
For high throughput measurement of agonist-evoked increases in intracellular calcium, CHO—K1 cells stably expressing muscarinic receptors were plated in growth medium lacking G418 and hygromycin at 15,000 cells/20 μL/well in Greiner 384-well black-walled, tissue culture (TC)-treated, clear-bottom plates (VWR). Cells were incubated overnight at 37° C. and 5% CO2. The next day, cells were washed using an ELX 405 (BioTek) with assay buffer; the final volume was then aspirated to 20 μL. Next, 20 μL of a 2.3 μM stock of Fluo-4/acetoxymethyl ester (Invitrogen, Carlsbad, Calif.), prepared as a 2.3 mM stock in DMSO and mixed in a 1:1 ratio with 10% (w/v) Pluronic F-127 and diluted in assay buffer, was added to the wells and the cell plates were incubated for 50 min at 37° C. and 5% CO2. Dye was removed by washing with the ELX 405 and the final volume was aspirated to 20 μL. Compound master plates were formatted in an 11 point concentration-response curve (CRC) format (1:3 dilutions) in 100% DMSO with a starting concentration of 10 mM using a BRAVO liquid handler (Agilent). Test compound CRCs were then transferred to daughter plates (240 nL) using the Echo acoustic plate reformatter (Labcyte, Sunnyvale, Calif.) and then diluted into assay buffer (40 μL) to a 2× stock using a Thermo Fisher Combi (Thermo Fisher Scientific, Waltham, Mass.).
Calcium flux was measured using the Functional Drug Screening System (FDSS) 6000 or 7000 (Hamamatsu Corporation, Tokyo, Japan) as an increase in the fluorescent static ratio. Compounds were applied to cells (20 μL, 2×) using the automated system of the FDSS at 2-4 seconds into the protocol and the data were collected at 1 Hz. At 144 seconds, 10 μL of an EC20 concentration of the muscarinic receptor agonist acetylcholine was added (5×), followed by the addition of 12 μL of an EC80 concentration of acetylcholine at the 230 second time point (5×). Agonist activity was analyzed as a concentration-dependent increase in calcium mobilization upon compound addition. Positive allosteric modulator activity was analyzed as a concentration-dependent increase in the EC20 acetylcholine response. With the acetylcholine EC20 set as baseline, the test compound EC50 is determined as the concentration that produces an increase above baseline of 50% of the maximum increase in acetylcholine response elicted by the test compound. Antagonist activity was analyzed as a concentration-dependent decrease in the EC80 acetylcholine response. Concentration-response curves were generated using a four-parameter logistical equation in XLFit curve fitting software (IDBS, Bridgewater, N.J.) for Excel (Microsoft, Redmond, Wash.) or Prism (GraphPad Software, Inc., San Diego, Calif.).
Compounds were synthesized as described above. Activity (EC50 and Emax) was determined in the mAChR M4 cell-based functional assay as described above and the data are shown in Table 3. The compound numbers correspond to the compound numbers used in Examples 2-4 and Tables 1 and 2.

Emax at 30 µM [%] | pEC50 | SMILES
52.5 | 6.72 | Cc1cc(C)c2cc(C(=O)NC3CN(c4cc(Cl)ncc4Cl)C3)ccc2n1 [Compound 5, N-[1-(2,5-dichloro-4-pyridyl)azetidin-3-yl]-2,4-dimethyl-quinoline-6-carboxamide]
55.5 | 5.85 | Cc1cc(C)c2cc(C(=O)NC3CN(c4ccnc(OC(F)F)c4)C3)ccc2n1 [Compound 10, N-[1-[2-(difluoromethoxy)-4-pyridyl]azetidin-3-yl]-2,4-dimethyl-quinoline-6-carboxamide]
27.5 | 5.66 | Cc1cc(C)c2cc(C(=O)NC3CN(c4nccc(Br)c4Cl)C3)ccc2n1 [Compound 11, N-[1-(4-bromo-3-chloro-2-pyridyl)azetidin-3-yl]-2,4-dimethyl-quinoline-6-carboxamide]
65.4 | 6.77 | Cc1cc(C)c2cc(C(=O)NC3CN(c4ccnc(F)c4F)C3)ccc2n1 [Compound 12, N-[1-(2,3-difluoro-4-pyridyl)azetidin-3-yl]-2,4-dimethyl-quinoline-6-carboxamide]
59.5 | 5.80 | Cc1cc(C)c2cc(C(=O)NC3CN(c4nccc(Br)c4F)C3)ccc2n1 [Compound 13, N-[1-(4-bromo-3-fluoro-2-pyridyl)azetidin-3-yl]-2,4-dimethyl-quinoline-6-carboxamide]

Further lines, the molecule ahead of its results:

SMILES | Emax at 30 µM [%] | pEC50
COc1ccc(CNC(=O)c2ccc3nc(C)cc(C)c3c2)cc1F [Compound 1, N-[(3-fluoro-4-methoxy-phenyl)methyl]-2,4-dimethyl-quinoline-6-carboxamide] | 53.1 | < 5.00
COc1cc(N2CC(NC(=O)c3ccc4nc(C)cc(C)c4c3)C2)c(Cl)cn1 [Compound 2, N-[1-(5-chloro-2-methoxy-4-pyridyl)azetidin-3-yl]-2,4-dimethyl-quinoline-6-carboxamide] | 39.3 | 6.27
Cc1cc(C)c2cc(C(=O)NC3CN(c4ncc(C(F)(F)F)cn4)C3)ccc2n1 [Compound 3, 2,4-dimethyl-N-[1-[5-(trifluoromethyl)pyrimidin-2-yl]azetidin-3-yl]quinoline-6-carboxamide] | 44.2 | 5.16
Cc1cc(C)c2cc(C(=O)NC3CN(c4ncc(OC(C)C)cn4)C3)ccc2n1 [Compound 4, N-[1-(5-isopropoxypyrimidin-2-yl)azetidin-3-yl]-2,4-dimethyl-quinoline-6-carboxamide] | 49.3 | 5.28
Cc1cc(C)c2cc(C(=O)NCc3ccncc3)ccc2n1 [Compound 6, 2,4-dimethyl-N-(4-pyridylmethyl)quinoline-6-carboxamide] | 26.4 | < 5.00
Cc1cc(C)c2cc(C(=O)NCc3cccnc3)ccc2n1 [Compound 7, 2,4-dimethyl-N-(3-pyridylmethyl)quinoline-6-carboxamide] | 32 | < 5.00
Cc1cc(N2CC(NC(=O)c3ccc4nc(C)cc(C)c4c3)C2)cc(OC(F)F)n1 [Compound 8, N-[1-[2-(difluoromethoxy)-6-methyl-4-pyridyl]azetidin-3-yl]-2,4-dimethyl-quinoline-6-carboxamide] | 41.1 | 5.77
Cc1cc(C)c2cc(C(=O)NC3CN(c4cc(Cl)nc(Cl)c4)C3)ccc2n1 [Compound 9, N-[1-(2,6-dichloro-4-pyridyl)azetidin-3-yl]-2,4-dimethyl-quinoline-6-carboxamide] | 26.1 | 6.43
COc1cc(N2CC(NC(=O)c3ccc4nnc(C)c(C)c4c3)C2)c(Cl)cn1 [Compound 14, N-[1-(5-chloro-2-methoxy-4-pyridyl)azetidin-3-yl]-3,4-dimethyl-cinnoline-6-carboxamide] | 74.1 | 6.43
COc1ccc(CNC(=O)c2ccc3nnc(C)c(C)c3c2)cc1F [Compound 15, N-[(3-fluoro-4-methoxy-phenyl)methyl]-3,4-dimethyl-cinnoline-6-carboxamide] | 72.3 | 5.72
